# Experimental data reported in patent publication US20180217129A1, “A Method Of Assessing Protein Modification Status And Identifying Biomarkers Linked To Cell Signaling Pathways” (Queen Mary University of London, priority 2015, published 2018).
# Like-named read-outs stand apart in the source and are kept apart here.
# Experiments:
# [1] = system: off-target kinases (MRC database); settings: cited from earlier work
# [2] = system: off-targets (ChEMBL); settings: cited from earlier work
# [3] = system: MCF7-G and MCF7-K resistant cells; test: Cell proliferation assay (cell counting), resistant cells; format: cell-based, human; settings: resistant cell-lines (MCF7-G for GDC-0941, MCF7-K for KU-0063794), 1 μM of inhibitor
# Method: MCF7 cells (identity confirmed by genotyping analysis) were routinely maintained in DMEM (supplemented with 10% fetal-bovine serum and 100 U·mL^−1 penicillin/streptomycin) at 37° C. in a humidified atmosphere at 5% CO2. Resistant MCF7 cell-lines, derived from the original parental cells, were obtained by gradually increasing the concentrations of GDC-0941 or KU-0063794 concentrations (starting at 100 nM up to a maximum of 1 μM) over a period of approximately six months. The resultant clones (MCF7-G1:G3 and MCF7-K1:K3) were then routinely maintained as above in the presence of either 1 μM GDC-0941 or KU-0063794 (in DMSO) for MCF7-G and MCF7-K cells, respectively.
# (§1) Parental MCF7, G1:3 and K1:3 cell-lines were seeded in 12-well plates at a density of approximately 80,000 cells·well^−1, in biological triplicate. After the indicated time period, cells were washed with PBS, trypsinized and counted using a Beckman Coulter Vi-CELL XR cell counter. Second-order polynomials where fitted to the data using the ggplot2 package (v0.9.3.1) within R (v3.0.0).
# [4] = system: parental MCF7 cells; test: Cell proliferation assay (cell counting), parental cells; format: cell-based, human; settings: 1 μM of inhibitor
# Method: as §1
# [5] = system: MCF7 cells; test: Growth factor stimulation phosphoproteomics (CTAM group dynamics, KSEA); format: cell-based, human; settings: stimulation for 5 min, relative to 0 minute control
# Method: Cells were split and seeded at 4×10^5 cells·plate^−1, 72 hours prior to the experiment. The medium in each plate was replaced 24 hours prior to the experiment. Each experiment was performed in biological duplicate. For the network definition experiments, cells were treated with each of the inhibitors or vehicle (DMSO) for 1 hour (Table 1). For the growth factor stimulation experiments, cells were starved for 24h and were subsequently treated with either 50 ng·mL^−1 EGF or IGF for 0, 5, 10, 30, or 60 minutes. For the resistant cell-line experiments, no additional treatments were performed. […]
# The abundance of each of the identified markers was monitored systematically using KSEA (kinase-substrate enrichment analysis), as described previously (1). […] The mean of the log2 fold-ratios (versus control) of the phosphorylation sites representing each CTAM group were then calculated alongside the standard deviation (δ) for each mean. The significance of enrichment was then determined using a Z-score based approach and expressed as P-values, using the following formula: Z=(Sm−μt)·m^1/2/δt; where Sm=mean of the CTAM group log2 fold-ratios; μt=mean of the total dataset log2 ratios; m=number of individual phosphopeptides within the CTAM group; and δt=standard deviation of the total dataset log2 ratios (vs control) (19). […]
compound,measurement,setting,value
O=c1[nH]c2ccccc2n1C1CCN(Cc2ccc(-c3nc4cc5[nH]cnc5cc4nc3-c3ccccc3)cc2)CC1 [Akt inhibitor VIII],Off-targets from MRC database (>50% inhibition at given concentration),[1]; 1 μM,CAMK1 (1 μM)
CN(C)CCCn1cc(C2=C(c3c[nH]c4ccccc34)C(=O)NC2=O)c2ccccc21 [Bisindolylmaleimide-I],Off-targets from ChEMBL,[2],"CDK4/CCND1, and GSK3β, and PIM1"
Nc1[nH]nc2nnc(-c3c(-c4ccccc4)nn4ccccc34)cc12 [ERK inhibitor II],Off-targets from ChEMBL,[2],MAPK14
CS(=O)(=O)N1CCN(Cc2cc3nc(-c4cccc5[nH]ncc45)nc(N4CCOCC4)c3s2)CC1 [GDC-0941],Off-targets from MRC database (>50% inhibition at given concentration),[1]; 1 μM,CLK2 (1 μM)
same,proliferation in the presence of inhibitor,[3],able to proliferate
same,proliferation in the presence of inhibitor,[4],unable to do so
Cn1c2ccccc2c2c3c(c4c5ccccc5n(CCC#N)c4c21)CNC3=O [Go-6976],Off-targets from ChEMBL,[2],PKD1
Cc1cncc2cccc(S(=O)(=O)N3CCCNC[C@@H]3C)c12 [H-1152],Off-targets from ChEMBL,[2],PKA
"CN([C@@H](Cc1ccc(OS(=O)(=O)c2cccc3cnccc23)cc1)C(=O)N1CCN(c2ccccc2)CC1)S(=O)(=O)c1cccc2cnccc12 [KN-62, 1-N,O-bis(5-isoquinolinesulfonyl)-N-methyl-L-tyrosyl-4-phenylpiperazin E]",Off-targets from ChEMBL,[2],P2RX7
same,Off-targets from MRC database (>50% inhibition at given concentration),[1]; 10 μM,PRAK and CAMK1 and DYRK1A and Lck
COc1ccc(S(=O)(=O)N(CCO)c2ccccc2CN(C)C/C=C/c2ccc(Cl)cc2)cc1 [KN-93],Off-targets from MRC database (>50% inhibition at given concentration),[1]; 10 μM,TrkA and smMLCK
COc1ccc(-c2ccc3c(N4CCOCC4)nc(N4C[C@@H](C)O[C@@H](C)C4)nc3n2)cc1CO [KU-0063794],proliferation in the presence of inhibitor,[3],able to proliferate
same,proliferation in the presence of inhibitor,[4],unable to do so
C=CC(=O)Nc1ccc2ncnc(Nc3cccc(Br)c3)c2c1 [PD-168393],Off-targets from ChEMBL,[2],"ERBB2/4, and BMX and BTK and BLK and JAK3"
CCc1cncnc1N1CCN(Cc2nc3ccc(C(F)(F)F)cc3[nH]2)CC1 [PF-4708671],Off-targets from MRC database (>50% inhibition at given concentration),[1]; 1 μM,MSK1 and RSK1
Oc1cccc(-c2nc(N3CCOCC3)c3oc4ncccc4c3n2)c1 [PI-103],Off-targets from ChEMBL,[2],"mTOR, and DNA-PK, and Akt1"
N#CC(=C(/N)Sc1ccccc1N)/C(C#N)=C(\N)Sc1ccccc1N [U0126],Off-targets from MRC database (>50% inhibition at given concentration),[1]; 10 μM,MKK1 (10 μM)
C[C@@H](N)[C@H]1CC[C@H](C(=O)Nc2ccncc2)CC1 [Y-27632],Off-targets from ChEMBL,[2],PKCε
same,Off-targets from MRC database (>50% inhibition at given concentration),[1]; 1 μM,PHK and MST2 and RSK2 and MSK1 and MNK1 and RSK1 and AMPK and PRK2
IGF-1: Human recombinant IGF-1 (100-11) purchased from Peprotech,EGFR-MEK CTAM group phosphorylation,[5],"significant, acute up-regulation"
